According to the OPERA property sets (Mansouri et al. 2018):

conditions: not given

SMILES | boiling point [°C] | melting point [°C] | ready biodegradability | log10 Koc (L/kg) | log10 vapour pressure (mmHg) | log10 Henry constant (atm·m³/mol) | log10 Koa | log10 biodegradation half-life (days)
CCOC(=O)c1cccc(N)c1 | 294 | – | – | – | – | – | – | –
COc1cccc(C(=O)O)c1 | – | 107 | readily biodegradable | – | – | – | – | –
C=CC1CCC1C=C (stereo unspecified) | 112 | – | – | – | – | – | – | –
CCC1(c2ccccc2)C(=O)NCNC1=O | – | 282 | – | – | – | – | – | –
CCCC(C)COC(C)=O (stereo unspecified) | 163 | – | – | – | – | – | – | –
Cc1ccc[nH]c1=O | 289 | 142 | – | – | – | – | – | –
Cc1ccc2oc(=O)ccc2c1 | 304 | 76.5 | – | – | – | – | – | –
Oc1cc(Cl)c(Br)cc1Cl | – | – | not readily biodegradable | – | – | – | – | –
CCOC=Nc1ccccc1 | 214 | – | – | – | – | – | – | –
O=C(OCC(=O)N1CCC[C@H]1C(=O)O)c1ccccc1 | – | 116 | – | – | – | – | – | –
CCc1cc2cc(OC)c(OC)cc2c(Cc2ccccc2)n1 | – | 78.5 | – | – | – | – | – | –
CN(C(O)=NC(C)(C)c1ccccc1)c1ccccc1 | – | 72 | – | – | – | – | – | –
Oc1c(Cl)cc(Cl)c(Cl)c1Cl | – | 70 | not readily biodegradable | 3.35 | -3.18 | – | – | –
c1ccc2c(c1)cc1ccc3cccc4c5ccccc5c2c1c34 | – | 162 | – | – | – | – | – | –
Cc1cnc(Cl)nc1Cl | 235 | 26 | – | – | – | – | – | –
CC(C)(C)NC(=O)[C@H]1CC[C@H]2[C@@H]3CC[C@H]4NC(=O)C=C[C@]4(C)[C@H]3CC[C@]12C | – | 253 | – | – | – | – | – | –
N#Cc1cc([N+](=O)[O-])ccc1N | – | – | not readily biodegradable | – | – | – | – | –
CCCCCCCCC(Br)CBr (stereo unspecified) | – | 28 | – | – | -2.43 | – | – | –
CCCCCCCC(=O)NN | – | 88 | – | – | – | – | – | –
COc1ccc2c(OC)c3ccoc3nc2c1OC | – | 177 | – | – | – | – | – | –
CC1(OO)CCC2CC1C2(C)C (stereo unspecified) | – | – | not readily biodegradable | – | – | – | – | –
COC(=O)c1ccccc1[N+](=O)[O-] | 275 | -13 | – | – | – | – | – | –
COC(=O)c1cccc(Br)c1 | – | 32 | – | – | – | – | – | –
c1cnoc1 | 95 | – | – | – | 1.66 | – | – | –
O=[N+]([O-])c1ccc2c3c(cccc13)CC2 | – | 100 | – | – | – | – | – | –
Cc1nc2ccccc2o1 | 200 | 9.5 | – | – | – | – | – | –
Cc1ccc(N=Nc2c(O)ccc3ccccc23)c([N+](=O)[O-])c1 | – | – | not readily biodegradable | – | – | – | – | –
CC(=O)Nc1ncc([N+](=O)[O-])s1 | – | 264 | – | – | – | – | – | –

SMILES | boiling point [°C] | melting point [°C] | ready biodegradability | log10 Koc (L/kg) | log10 vapour pressure (mmHg) | log10 Henry constant (atm·m³/mol) | log10 Koa | log10 biodegradation half-life (days)
S=c1sc2nc3ccccc3nc2s1 | – | 180 | – | – | – | – | – | –
Brc1ccc(I)cc1 | 252 | 92 | – | – | – | – | – | –
CC(=O)c1ccc(Br)s1 | – | 94.5 | – | – | – | – | – | –
O=C(O)C(=O)Nc1ccccc1 | – | 150 | – | – | – | – | – | –
Cc1ccc(Cl)cc1Cl | 201 | -13.5 | not readily biodegradable | – | -0.339 | – | – | –
CC(=O)OC1CCC2(C)C(CCC3(C)C2C(=O)C=C2C4CC(C)(C(=O)O)CCC4(C)CCC23C)C1(C)C (stereo unspecified) | – | 323 | – | – | – | – | – | –
Cc1cc(-c2cc(C)c(O)c(C)c2)cc(C)c1O | – | 222 | – | – | – | – | – | –
O=CC(Cl)(Cl)Cl | 97.8 | -57.5 | not readily biodegradable | – | 1.7 | -8.54 | – | –
N#Cc1nc(C#N)nc(C#N)n1 | 262 | 119 | – | – | – | – | – | –
CC(=O)OCC(CO)OC(C)=O (stereo unspecified) | 259 | – | readily biodegradable | – | – | – | – | –
c1ccc(Sc2ccccc2)cc1 | 296 | -25.9 | – | – | -2.12 | – | – | –
COC(=O)[C@H](Cc1ccccc1)NC(=O)[C@@H](N)CC(=O)O | – | 246 | – | – | – | – | – | –
CC(=O)c1ccc(OCC(=O)O)cc1 | – | 176 | – | – | – | – | – | –
NC(=O)c1ccccc1F | – | 118 | – | – | – | – | – | –
Clc1cccc(-c2c(Cl)ccc(Cl)c2Cl)c1Cl | – | – | – | – | – | – | 8.8 | –
CC(=O)OC(C)OC(C)=O | 169 | 18.9 | – | – | – | – | – | –
CCCCCC(C)CC (stereo unspecified) | 144 | -108 | – | – | 0.796 | – | – | 0.699
CCOP(=O)(SC(C)CC)N1CCSC1=O (stereo unspecified) | – | – | – | – | -5.38 | -9.76 | – | –
BrC/C=C/CBr | 203 | 53.4 | – | – | – | – | – | –
O=C(O)C(O)(O)C(O)(O)C(=O)O | – | 114 | – | – | – | – | – | –
Cc1ccccc1-n1c(C)nc2ccccc2c1=O | – | 120 | – | – | – | – | – | –
Sc1ccc2ccccc2c1 | 288 | 81 | not readily biodegradable | – | – | – | – | –
CCCCCC(C)=O | 151 | -35 | – | – | 0.586 | -3.77 | 4.15 | –
CC(C)COC(=O)C(C)C | 149 | -80.7 | – | – | 0.636 | – | – | –
O=c1ccc2cc3ccoc3cc2o1 | – | 164 | – | – | – | – | – | –
C[C@@H](N)[C@@H](O)c1ccccc1 | – | 101 | – | – | – | – | – | –
c1ccc(-c2ccc3ccccc3c2)cc1 | 346 | 104 | – | – | -4.46 | – | – | –

same assay, conditions: fish

SMILES | log10 biotransformation half-life (days) | log10 BCF
CC(C)(C)C(O)(CCc1ccc(Cl)cc1)Cn1cncn1 (stereo unspecified) | 0.77 | –
O=[N+]([O-])c1ccccc1O | – | 1.34
CCC(C)CCCC(C)CCCC(C)C (stereo unspecified) | 1.36 | –
COc1c(Cl)c(Cl)c(Cl)c(Cl)c1Cl | 2.67 | 4.16
Clc1ccc(Oc2cc(Cl)c(Cl)cc2Cl)c(Cl)c1 | 2.02 | –
Oc1c(Cl)cc(Cl)c(Cl)c1Cl | – | 2.3
